From PMC11579541, “In vitro, in vivo, and in silico approaches for evaluating the preclinical DMPK profiles of ammoxetine, a novel chiral serotonin and norepinephrine reuptake inhibitor” (Frontiers in Pharmacology, 2024)

How the values were obtained:
[1] = system: P-gp; details: ref Ruike et al., 2010; cited from earlier work
[2] = PK studies in beagle dogs; format: in vivo; details: dog, in vivo; beagle dogs, same dose (2 mg/kg); prior preliminary experiment by the team, unpublished results; read-out: absolute bioavailability
Method: For the PK studies in rats and dogs, a total of 18 SD rats and 15 male beagle dogs were randomly divided into three groups, with six rats or five dogs per group, respectively. Prior to the experiments, all animals underwent a 12-h fasting period, while having free access to water. The animals were administered single oral doses of ammoxetine in three different dose levels: 8 mg/kg, 20 mg/kg, and 50 mg/kg for rats, and 2 mg/kg, 5 mg/kg, and 12.5 mg/kg for dogs, representing low, medium, and high doses. Serial blood samples were collected from the rats at 0, 2, 5, 15, and 30 min, as well as 1, 2, 4, 6, 8, 12, and 24 h post-dosing. For the dogs, blood samples were collected at 0, 5, 15, 30, and 45 min, as well as 1, 2, 4, 6, 8, 12, and 24 h post-dosing. Approximately 0.3 mL of blood was collected from the rats, while 2 mL of blood was collected from the dogs. The blood samples were collected into heparinized tubes. Following centrifugation, plasma samples were obtained and stored at −30°C until further analysis.
For the absolute bioavailability (F, %) study in dogs, the dogs initially received a single gastric gavage of a low dose (2 mg/kg) of ammoxetine, followed by a 1-week washout period. After the washout, the same dose of ammoxetine was administered intravenously (i.v.). To assess the effects of nonfasting on ammoxetine PK, dogs that received a medium dose (5 mg/kg) of ammoxetine via gastric gavage underwent a radical washout period of 1 week. Subsequently, they were administered the same dose of ammoxetine via gastric gavage under nonfasting conditions. To compare sex differences in ammoxetine PK, an additional five female beagle dogs were administered a medium dose (5 mg/kg) of ammoxetine via gastric gavage after a 12-h overnight fast. Blood samples (2 mL) were collected from these dogs into heparinized tubes at predose and at specified time points: 5, 15, 30, and 45 min, as well as 1, 2, 4, 6, 8, 12, and 24 h postdose. For the repeat-dose study, after completing blood collection during the initial administration, dogs receiving a single gastric gavage of a medium dose (5 mg/kg) of ammoxetine under fasting conditions were subsequently orally dosed with seven repeat doses of ammoxetine (5 mg/kg) every 12 h. Trough blood samples were collected before the fourth to last administration to ensure steady-state blood concentrations (C ss ) were achieved. Approximately 2 mL of blood was collected at specified time points after the last dose and transferred into heparinized tubes. All blood samples were then centrifuged at 4,000 r/min for 20 min to obtain plasma samples, which were stored at −30°C until analysis.
To determine the concentration of ammoxetine, 100 μL of L-phencynonate (IS, 50 ng/mL) and 300 μL of methanol were added to 100 μL of plasma samples from rats or dogs. After thorough vortexing, the mixture was centrifuged at 13,800×g for 10 min. The supernatants were then subjected to analysis using LC-MS-MS methods. PK parameters were calculated using DAS (Drug And Statistics for Windows) version 2.0, developed by the Shanghai University of Traditional Chinese Medicine, Shanghai, China. The F was determined by comparing the plasma area under the concentration-time curve (AUC) values after oral (p.o.) and intravenous (i.v.) administration of ammoxetine. F was calculated using the formula: F=AUCp.o./AUCi.v.×100% . Statistical analyses were performed using OriginPro 8.6 software. Paired sample or student’s t-test, as well as one-way ANOVA, were employed to compare the means of two or three groups, with a significance level set at p < 0.05.

Compound: CNCC[C@H](Oc1cccc2ccccc12)c1cccs1 [duloxetine, reference compound]
- action on P-gp [1]: P-gp inhibitor
- bioavailability [2]: ~33%
